A short description of series [1]: Intrinsic clearance in human liver microsomes. Type of series: ADME, Microsome. The following applies: read-out: CLH.
Series [2] in a line: Thermodynamic solubility in pH 7 buffer. Type of series: physicochemical. As to conditions: read-out: Therm_solubility.
For series [3], the target named is Core antigen (Hepatitis B virus) (UniProt Q03732). Briefly: Ratio of EC50 for modulation of capsid assembly in HBV infected in human HepG2.2.15 cells in presence of 40% normal human serum to EC50 for modulation of capsid assembly in HBV infected in human HepG2.2.15 cells in absence of 40% normal human serum. Type of series: cell-based.
Series [4] is described as follows: Intrinsic clearance in rat liver microsomes. Format: ADME, Microsome. The following applies: read-out: CLH.
Series [5] in a line: Intrinsic clearance in mouse liver microsomes. Format: ADME, Microsome. As to conditions: read-out: CLH.
Series [6] in a line: Intrinsic clearance in dog liver microsomes. As to conditions: read-out: CLH. Type of series: ADME, Canis lupus familiaris, Microsome.
The nature of series [7]: Lipophilicity, log D of compound. The following applies: octanol/water. Format: physicochemical.
Series [8] can be described thus: Protein binding in human plasma. Format: ADME, cell-free. The following applies: read-out: PPB (converted).
Series [9] is described as follows: Protein binding in rat plasma. Format: ADME, cell-free. As to conditions: read-out: PPB (converted).
The nature of series [10]: Protein binding in mouse plasma. As to conditions: read-out: PPB (converted). Format: ADME, cell-free.
Series [11] is described as follows: Protein binding in dog plasma. Format: ADME, cell-free, Canis lupus familiaris. As to conditions: read-out: PPB (converted).
Series [12] can be described thus: Intrinsic clearance in human hepatocytes. Format: ADME, cell-based, Hepatocyte. The following applies: read-out: CLH.
The nature of series [13]: Intrinsic clearance in dog hepatocytes. As to conditions: read-out: CLH. Type of series: ADME, cell-based, Canis lupus familiaris, Hepatocyte.
Series [14] can be described thus: Intrinsic clearance in rat hepatocytes. Format: ADME, cell-based, Hepatocyte. As to conditions: read-out: CLH.
The nature of series [15]: Intrinsic clearance in mouse hepatocytes. Type of series: ADME, cell-based, Hepatocyte. The following applies: read-out: CLH.
A short description of series [16]: Volume of distribution at steady state in mouse at 10 mg/kg, po or 2.5 mg/kg, iv. As to conditions: in vivo. Format: ADME, organism-based.
Series [17] is described as follows: Half life in mouse at 10 mg/kg, po or 2.5 mg/kg, iv. Format: ADME, organism-based. The following applies: in vivo.
The nature of series [18]: Cmax in mouse at 10 mg/kg, po. The arrangement: dose 10 mg/kg, route po. As to conditions: in vivo. Format: ADME, organism-based.
The nature of series [19]: Tmax in mouse at 10 mg/kg, po. Format: ADME, organism-based. As to conditions: in vivo.
Series [20] is described as follows: AUC (0 to infinity) in mouse at 10 mg/kg, po. Type of series: ADME, organism-based. Further details: time infinity, dose 10 mg/kg, route po. The following applies: in vivo.
Series [21] in a line: Oral bioavailability in mouse at 10 mg/kg. Format: ADME, organism-based. As to conditions: in vivo.
A short description of series [22]: Volume of distribution at steady state in rat at 5 mg/kg, po or 1.25 mg/kg, iv. Type of series: ADME, organism-based. As to conditions: in vivo.
The nature of series [23]: Half life in rat at 5 mg/kg, po or 1.25 mg/kg, iv. Type of series: ADME, organism-based. As to conditions: in vivo.
Series [24] in a line: Cmax in rat at 5 mg/kg, po. Type of series: ADME, organism-based. The following applies: in vivo. The arrangement: dose 5 mg/kg, route po.
The nature of series [25]: Tmax in rat at 5 mg/kg, po. Type of series: ADME, organism-based. The following applies: in vivo.
The nature of series [26]: AUC (0 to infinity) in rat at 5 mg/kg, po. The following applies: in vivo. The arrangement: time infinity, dose 5 mg/kg, route po. Format: ADME, organism-based.
The nature of series [27]: Oral bioavailability in rat at 5 mg/kg. As to conditions: in vivo. Format: ADME, organism-based.
Series [28] is described as follows: Volume of distribution at steady state in Beagle dog at 2.5 mg/kg, po or 0.5 mg/kg, iv. Type of series: ADME, organism-based, Canis lupus familiaris. As to conditions: in vivo.
The nature of series [29]: Half life in Beagle dog at 2.5 mg/kg, po or 0.5 mg/kg, iv. The following applies: in vivo. Format: ADME, organism-based, Canis lupus familiaris.
Series [30] in a line: Cmax in Beagle dog at 2.5 mg/kg, po. The following applies: in vivo. Further details: dose 2.5 mg/kg, route po. Type of series: ADME, organism-based, Canis lupus familiaris.
Series [31] is described as follows: Tmax in Beagle dog at 2.5 mg/kg, po. Type of series: ADME, organism-based, Canis lupus familiaris. As to conditions: in vivo.
A short description of series [32]: AUC (0 to infinity) in Beagle dog at 2.5 mg/kg, po. Format: ADME, organism-based, Canis lupus familiaris. Further details: time infinity, dose 2.5 mg/kg, route po. The following applies: in vivo.
A short description of series [33]: Oral bioavailability in Beagle dog at 2.5 mg/kg. Type of series: ADME, organism-based, Canis lupus familiaris. The following applies: in vivo.
The nature of series [34]: Modulation of capsid assembly in HBV infected in human HepG2.2.15 cells assessed as inhibition of viral DNA replication.

These results are taken from ChEMBL document CHEMBL5113429, “Diazepinone HBV capsid assembly modulators” (Bioorg Med Chem Lett, 2022).

Converted amounts (≈) assume the structure as drawn. Bounds are passed on as bounds.

Chain of Core antigen (Hepatitis B virus) (Q03732 as listed by the source): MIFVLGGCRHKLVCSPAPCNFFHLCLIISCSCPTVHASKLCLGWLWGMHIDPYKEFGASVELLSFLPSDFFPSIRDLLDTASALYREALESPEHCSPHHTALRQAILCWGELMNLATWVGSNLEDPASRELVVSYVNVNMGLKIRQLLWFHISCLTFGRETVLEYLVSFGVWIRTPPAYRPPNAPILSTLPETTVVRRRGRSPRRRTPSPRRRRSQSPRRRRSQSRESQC

As to `CN1CC(F)Cn2nc3c(c2C1=O)CN(C(=O)Nc1ccc(F)c(C#N)c1)CC3` (racemic), the CLint scaled in series [1] amounted to 5.2 mL/min/kg. Also, the solubility thermodynamic in [2] worked out at 179 µM (≈ 71.7 µg/mL).

Turning to `C[C@@H]1Cc2nn3c(c2CN1C(=O)Nc1ccc(F)c(C#N)c1)C(=O)N(C)O[C@@H](CF)C3`, the Ratio EC50 in [3] was determined as 2.

For the compound `CN1CCC(CO)n2nc3c(c2C1=O)CN(C(=O)Nc1ccc(F)c(Cl)c1)CC3` (racemic), the CLint scaled in series [1] was 4.7 mL/min/kg. Also, the solubility thermodynamic in series [2] came out at 195 µM (≈ 82.3 µg/mL).

For `CN1CC(C(F)F)Cn2nc3c(c2C1=O)CN(C(=O)Nc1ccc(F)c(Cl)c1)CC3` (racemic), the CLint scaled in [1] was determined as 15 mL/min/kg. Besides, the solubility thermodynamic in series [2] is 175 µM (≈ 77.3 µg/mL).

As to `CN1CC(OCC(F)F)Cn2nc3c(c2C1=O)CN(C(=O)Nc1ccc(F)c(Cl)c1)CC3` (racemic), the CLint scaled in series [1] was 5.4 mL/min/kg. The solubility thermodynamic in [2] is 181 µM (≈ 85.4 µg/mL).

Take `CN1CCn2nc3c(c2C1=O)CN(C(=O)Nc1ccc(F)c(Cl)c1)CC3`: the CLint scaled in [1] amounted to 26 mL/min/kg. Further, the solubility thermodynamic in [2] worked out at 179 µM (≈ 67.6 µg/mL).

`C[C@@H]1Cc2nn3c(c2CN1C(=O)Nc1ccc(F)c(C#N)c1)C(=O)N(C)C[C@@H](F)C3`: the CLint scaled in series [1] is under 6 mL/min/kg; in series [4] it was 44 mL/min/kg; in series [5], 28 mL/min/kg; in [6], under 6 mL/min/kg; in [12], 7.7 mL/min/kg; in series [13], under 6.4 mL/min/kg. For the same compound, the CLint scaled was determined as 57 mL/min/kg in series [14] and 101 mL/min/kg in [15]. Further, the solubility thermodynamic in series [2] worked out at 72 µM (≈ 29.8 µg/mL). In series [3], the Ratio EC50 came out at 1.5. This compound had a log distribution coefficient (logD) in [7] of 1.95. For the same compound, the fraction unbound was 0.19 in series [8], 0.38 in series [9], 0.34 in series [10] and 0.23 in series [11]. For the same compound, the values for the Vdss in series [16], in series [22] and in series [28] were 0.99 L/kg, 2.09 L/kg and 1 L/kg, respectively. Besides, the values for the half-life in [17], in [23] and in [29] were 0.51 h, 1.92 h and 4.3 h, respectively. In addition, the Cmax in series [18] was found to be 1270 ng/mL; in series [24] it was 98 ng/mL; in [30], 1150 ng/mL. Moreover, the Tmax in [19] amounted to 0.5 h; in series [25], 1.33 h; in [31], 2 h. The AUC(0-inf) in series [20] came to 1930 ng·h/mL; in series [26] it was 697 ng·h/mL; in series [32], 7000 ng·h/mL. Besides, the bioavailability in series [21] is 44%; in series [27], 54%; in series [33], 47%.

In the case of `CN1CC(F)(F)Cn2nc3c(c2C1=O)CN(C(=O)Nc1ccc(F)c(Cl)c1)CC3`, the CLint scaled in series [1] is 8.1 mL/min/kg. For the same compound, the solubility thermodynamic in series [2] was found to be 181 µM (≈ 77.4 µg/mL).

`CN1CC(F)Cn2nc3c(c2C1=O)CN(C(=O)Nc1ccc(F)c(C(F)(F)F)c1)CC3` (racemic): the CLint scaled in series [1] was determined as 17 mL/min/kg. Also, the solubility thermodynamic in [2] was found to be 175 µM (≈ 77.6 µg/mL).

Regarding `CN1CC(F)Cn2nc3c(c2C1=O)CN(C(=O)Nc1ccnc(Br)c1F)CC3` (racemic), in series [1], the CLint scaled was 5 mL/min/kg. The solubility thermodynamic in series [2] stood at 170 µM (≈ 77.4 µg/mL).

Take `CN1C(=O)c2c3c(nn2CCC1CO)CCN(C(=O)Nc1ccc(F)c(Cl)c1)C3` (racemic): in series [1], the CLint scaled was 9 mL/min/kg. In addition, the solubility thermodynamic in series [2] came to 189 µM (≈ 79.7 µg/mL).

On to `CN1CC(F)Cn2nc3c(c2C1=O)CN(C(=O)Nc1ccc(F)c(Br)c1)CC3` (racemic), for which the CLint scaled in [1] stood at 22 mL/min/kg. Besides, the solubility thermodynamic in series [2] was found to be 191 µM (≈ 86.8 µg/mL).

For `CN1CC(F)Cn2nc3c(c2C1=O)CN(C(=O)Nc1ccc(F)c(Cl)c1)CC3` (racemic), the CLint scaled in [1] turned out to be 12 mL/min/kg. Also, the solubility thermodynamic in [2] is 183 µM (≈ 75 µg/mL).

Consider `CN1OC(CO)Cn2nc3c(c2C1=O)CN(C(=O)Nc1ccc(F)c(Cl)c1)CC3` (racemic), for which, in [1], the CLint scaled was under 7 mL/min/kg. Also, the solubility thermodynamic in [2] was 169 µM (≈ 71.6 µg/mL). Further, in [34], the EC50 turned out to be 9 nM.

For the compound `CN1CCCn2nc3c(c2C1=O)CN(C(=O)Nc1ccc(F)c(Cl)c1)CC3`, the CLint scaled in series [1] turned out to be 11 mL/min/kg. In addition, the solubility thermodynamic in series [2] turned out to be 195 µM (≈ 76.4 µg/mL).

With `C[C@@H]1Cc2nn3c(c2CN1C(=O)Nc1ccc(F)c(C#N)c1)C(=O)N(C)C[C@H](F)C3`, the CLint scaled in series [1] is under 6 mL/min/kg; in [4], 31 mL/min/kg; in [6], under 8 mL/min/kg. In series [7], the pH-dependent lipophilicity (logD) was determined as 1.96.

Regarding `CC1CN(C)C(=O)c2c3c(nn2C1)CCN(C(=O)Nc1ccc(F)c(Cl)c1)C3` (racemic), in [1], the CLint scaled came to 28 mL/min/kg. Further, in series [2], the solubility thermodynamic worked out at 182 µM (≈ 73.9 µg/mL).

As to `CN1CC(N(C)C)Cn2nc3c(c2C1=O)CN(C(=O)Nc1ccc(F)c(Cl)c1)CC3` (racemic), the CLint scaled in series [1] is 14 mL/min/kg. Further, in [2], the solubility thermodynamic amounted to 187 µM (≈ 81.3 µg/mL).

In the case of `CN1CC(CO)Cn2nc3c(c2C1=O)CN(C(=O)Nc1ccc(F)c(Cl)c1)CC3` (racemic), the CLint scaled in series [1] is under 5 mL/min/kg. Further, the solubility thermodynamic in [2] was determined as 191 µM (≈ 80.6 µg/mL).

`CN1CCCCn2nc3c(c2C1=O)CN(C(=O)Nc1ccc(F)c(Cl)c1)CC3`: the CLint scaled in series [1] came out at 16 mL/min/kg. The solubility thermodynamic in [2] was over 200 µM.
